Each block holds one compound with its values, some of them ahead of it. Bridge positions count the residues as written; N and C are the ends. Ends that are not written are not given here. Peptide text beside a SMILES is read from it.
Assays:
Format in all cases: cell-based, murine
[1] = test system: PGE2 production in LPS-stimulated RAW 264.7 cells; assay: PGE2 production, enzyme-immunoassay; settings: LPS 1 µg/mL + indomethacin 10 µM, 48 h
Method: Sigma, St. Louis, MO, USA) in the presence or absence of various concentrations of the test peptide and then incubated at 37°C in 5% CO2 for 48 h. Indomethacin (10 μM; Sigma, St. Louis, MO, USA) was included as a positive control. […] Sigma). Culture supernatant was collected and the nitrite (a stable breakdown product of NO) accumulated in culture supernatant was then determined by the Griess reagent system (Promega, Madison, USA). Briefly, 50 μL of culture supernatant was mixed with an equal volume of 1% sulfanilamide in 5% phosphoric acid. […] The absorbance was measured at 540 nm using a microplate reader (Rayto RT-2100C, China) and nitrite concentrations were determined using a sodium nitrite standard curve. The PGE2 levels in culture medium were quantified by enzyme-immunoassay (R&D Systems, Minneapolis, MN, USA) according to the manufacturer’s instructions.

[2] = test system: NO production in LPS-stimulated RAW 264.7 cells; assay: LPS-stimulated NO production (nitrite, Griess); settings: peptide 1 µg/mL, LPS 1 µg/mL, 48 h, mean ± SD
Method: (§1) RAW 264.7 cells at 1×10^5 cells/well were stimulated with 1 μg/mL LPS (Escherichia coli 0111:B4; Sigma, St. Louis, MO, USA) in the presence or absence of various concentrations of the test peptide and then incubated at 37°C in 5% CO2 for 48 h. Indomethacin (10 μM; Sigma, St. Louis, MO, USA) was included as a positive control. Where appropriate, cells were pre-incubated with the test peptide for 1 h, and washed three times with sterile PBS before incubation with LPS (1 μg/mL; Sigma). Culture supernatant was collected and the nitrite (a stable breakdown product of NO) accumulated in culture supernatant was then determined by the Griess reagent system (Promega, Madison, USA). Briefly, 50 μL of culture supernatant was mixed with an equal volume of 1% sulfanilamide in 5% phosphoric acid. After incubation for 10 min at room temperature, 50 μL of 0.1% N-1-napthylethylenediamine dihydrochloride was added and incubated for another 10 min at room temperature. The absorbance was measured at 540 nm using a microplate reader (Rayto RT-2100C, China) and nitrite concentrations were determined using a sodium nitrite standard curve. The PGE2 levels in culture medium were quantified by enzyme-immunoassay (R&D Systems, Minneapolis, MN, USA) according to the manufacturer’s instructions.

[3] = test system: IL-1β production in LPS-stimulated RAW 264.7 cells; assay: IL-1β production, sandwich ELISA; settings: LPS 1 µg/mL, 72 h, mean ± SD
Method: (§2) The pro-inflammatory cytokines (IL-1β and TNF-α)were determined by sandwich enzyme-linked immunosorbent assay (ELISA). RAW 264.7 cells (1×10^5 cells/well) were seeded into a 96-well microtiter plate (Nunc™) and stimulated with LPS (1 μg/mL; Sigma) in the presence or absence of each peptide at different concentrations. After 72 h of incubation, the culture supernatant was collected and cytokine concentrations measured using ELISA MAX™ Deluxe Set (BioLegend, San Diego, CA, USA), following the manufacturer’s protocol.

[4] = test system: TNF-α production in LPS-stimulated RAW 264.7 cells; assay: TNF-α production, sandwich ELISA; settings: LPS 1 µg/mL, 72 h, mean ± SD
Method: as §2

[5] = test system: NO production in LPS-stimulated RAW 264.7 cells; assay: Pre-treatment with or without wash, then LPS; NO by Griess; settings: 10 µg/mL pre-treatment 1 h, washed, LPS 1 µg/mL 48 h
Method: as §1, with “Briefly, 50 μL of culture supernatant was mixed with an equal volume of 1% sulfanilamide in 5% phosphoric acid. After incubation for 10 min at room temperature, 50 μL of 0.1% N-1-napthylethylenediamine dihydrochloride was added and incubated for another 10 min at room temperature.” left out
To investigate whether the ability of KLK peptide to inhibit LPS-induced signaling was due to KLK-LPS binding, experiments were performed in which RAW 264.7 cells were pre-treated with the KLK peptide for 1 h and then thoroughly washed to remove exogenous peptide. The cells were subsequently stimulated with LPS and pro-inflammatory mediator (NO) measured in cell-free supernatant after 48 hr. […]

Compound: COc1ccc2c(c1)c(CC(=O)O)c(C)n2C(=O)c1ccc(Cl)cc1 [Indomethacin]
PGE2 ([1]; exp. 1): 783.5 pg/mL | PGE2 ([1]; exp. 2): 716 pg/mL | PGE2 ([1]; mean of n = 2): 749.7 pg/mL

IC50 for IL-1β production [3]: 8.83 ± 1.31 µg/mL | IC50 for TNF-α production [4]: 0.91 ± 0.07 µg/mL
Compound: CC(C)C[C@@H]1NC(=O)[C@H](CCCCN)NC(=O)[C@H](CC(C)C)NC(=O)[C@H](CC(C)C)NC(=O)[C@H](CC(C)C)NC(=O)[C@H](CC(C)C)NC(=O)[C@H](CC(C)C)NC(=O)[C@H](CCCCN)NC(=O)[C@H](CC(C)C)NC(=O)[C@H](CCCCN)NC(=O)[C@H](CCCCN)NC1=O [CYCKLK] (HELM PEPTIDE1{K.L.K.L.L.L.L.L.K.L.K}$PEPTIDE1,PEPTIDE1,1:R1-11:R2$$$V2.0)
inhibitory rate of LPS-stimulated NO production [2]: 79.26 ± 3.17%

Compound: polymyxin B [PMB]
effect of removing exogenous compound by washing before LPS on NO inhibition [5]: significantly affected

IC50 for TNF-α production [4]: 1.79 ± 0.01 µg/mL
Compound: CKLKLLLLLKLKC (disulfide 1-13 (inferred)) [SSKLK, KLK with cysteine residues added to both N and C-terminal ends]
inhibitory rate of LPS-stimulated NO production [2]: 70.77 ± 1.55%

— paper PMC5574609, “Potential role of an antimicrobial peptide, KLK in inhibiting lipopolysaccharide-induced macrophage inflammation” (PLoS ONE, 2017)
